Test results taken from publication PMC3448000 (Biochemistry, 2012).
Values joined by “and” are separate entries in the source; they are usually repeats but may differ in a detail not shown here. Equal values may be shown once. Read-outs that look alike come from different tables or passages of the source.

What was measured:
[1] = cited from earlier work; for pKa: solution pKa
CYP3A4 [2] = details: 5–30 °C, 100 mM KPi pH 7.4 + 20% glycerol
CYP3A4 [3] = experiment: UV/vis absorbance titration of purified CYP3A4; format: binding, human; details: for optical binding spectrum type: UV/vis difference spectrum; for Soret Red Shift: comparison of 1,2,3-TRZ and 17-click
CYP2C9 (hepta mutant) = experiment: UV/vis absorbance titration of purified CYP2C9; format: binding, human
[4] = test system: human Methionine Amino Peptidase 2; details: cited from earlier work
CYP3A4 [5] = details: CYP3A4 Supersomes, cited from earlier work
CYP3A4 [6] = biological target: T1, CYP3A4 (Homo sapiens, UniProt P08684); experiment: Substrate depletion by CYP3A4 Supersomes; format: in vitro ADME
T1 sequence (P08684 whole entry): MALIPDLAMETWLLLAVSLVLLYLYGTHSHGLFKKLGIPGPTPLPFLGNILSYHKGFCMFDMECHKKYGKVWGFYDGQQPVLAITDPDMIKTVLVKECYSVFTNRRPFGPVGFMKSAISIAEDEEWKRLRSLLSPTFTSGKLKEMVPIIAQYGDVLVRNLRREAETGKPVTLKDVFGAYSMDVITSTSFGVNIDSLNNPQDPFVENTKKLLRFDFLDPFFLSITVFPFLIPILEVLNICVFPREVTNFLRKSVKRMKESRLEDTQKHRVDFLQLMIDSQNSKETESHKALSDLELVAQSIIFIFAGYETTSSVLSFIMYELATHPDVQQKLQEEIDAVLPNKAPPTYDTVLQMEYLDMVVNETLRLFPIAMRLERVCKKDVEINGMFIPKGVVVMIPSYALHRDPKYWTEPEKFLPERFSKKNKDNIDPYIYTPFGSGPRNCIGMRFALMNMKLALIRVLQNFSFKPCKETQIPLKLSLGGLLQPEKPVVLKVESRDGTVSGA

CYP3A4 [7] = details: cited from earlier work
CYP2B4 = details: 25°C; relative to 1-PI / 4-PI; cited from earlier work
CYP3A4 [8] = biological target: T1, CYP3A4; experiment: Inhibition of testosterone 6β-hydroxylation by CYP3A4 in Supersomes; format: biochemical; details: 50 μM testosterone, LC-MS/MS
[9] = 20°C, 100 mM KPi pH 7.4 + 20% glycerol

SMILES: c1c[nH]nn1 [1,2,3-TRZ, 1H-1,2,3-triazole]
- pKa [1]: 1.15
- ΔH°binding (CYP3A4 [2]): -8.8 ± 0.1 kcal/mol
- ΔS°binding (CYP3A4 [2]): −22 ± 0.4 cal/mol/K
- Abs390 (1μM), estimate of efficiency of type II ligand to decrease high spin enzyme fraction (CYP3A4 [3]; 20°C): −0.023
- Absmax (1μM), maximum peak trough intensity normalized to 1 μM (CYP3A4 [3]; 20°C): 0.058
- Soret band red shift (CYP3A4 [3]; 20°C): 6 nm
- Kd (CYP3A4 [3]; [9]): 14300 µM
- optical binding spectrum type (CYP3A4 [3]): type II
- Soret Red Shift (CYP3A4 [3]): 6 nm
- fold lower affinity vs. IMZ (CYP3A4 [3]; from KD): ~ 38 fold
- ΔAbsmax (1μM), peak minus trough intensity from difference spectrum (CYP3A4 [3]; normalized to 1 μM): 0.058
- Absmax (1μM), maximum peak trough intensity normalized to 1 μM (CYP2C9 (hepta mutant); 20°C): 0.041
- Soret band red shift (CYP2C9 (hepta mutant); 20°C): 2 nm
- Kd (CYP2C9 (hepta mutant); [9]): 10000 µM
- optical binding spectrum type (CYP2C9 (hepta mutant); UV/vis difference spectrum): type II
- fold lower affinity vs. 1,2,4-TRZ (CYP2C9 (hepta mutant); from KD): ~50 fold
- fold lower affinity vs. IMZ (CYP2C9 (hepta mutant); from KD): ~ 101 fold

SMILES: c1c[nH]cn1 [IMZ, imidazole]
- pKa298K ([1]; proton dissociation in 100 mM potassium chloride): 7.09 ± 0.1
- pKa [1]: 6.99
- ΔH°binding (CYP3A4 [2]): -8.1 ± 0.3 kcal/mol
- ΔS°binding (CYP3A4 [2]): −10 ± 1 cal/mol/K

SMILES: Cc1cccc(-c2c[nH]nn2)c1 [4-(3-methylphenyl)-1H-1,2,3-triazole]
- affinity [4]: 0.018 µM

SMILES: c1nc[nH]n1 [1,2,4-TRZ, 1H-1,2,4-triazole]
- pKa [1]: 2.45
- Abs390 (1μM), estimate of efficiency of type II ligand to decrease high spin enzyme fraction (CYP3A4 [3]; 20°C): −0.025
- Soret band red shift (CYP3A4 [3]; 20°C): 6 nm
- Absmax (1μM), first value of two site fit (CYP3A4 [3]; 20°C, two site model): 0.0065
- Absmax (1μM), second value of two site fit (CYP3A4 [3]; 20°C, two site model): 0.050
- Kd (CYP3A4 [3]; read-out: KD1, 20°C, two site binding model, first (high affinity) equivalent): 39 µM
- Kd (CYP3A4 [3]; read-out: KD2, 20°C, two site binding model, second (low affinity) equivalent): 4800 µM
- Soret band red shift (CYP2C9 (hepta mutant); 20°C): 5 nm
- Absmax (1μM), first value of two site fit (CYP2C9 (hepta mutant); 20°C, two site model): 0.023
- Absmax (1μM), second value of two site fit (CYP2C9 (hepta mutant); 20°C, two site model): 0.044
- Kd (CYP2C9 (hepta mutant); read-out: KD1, 20°C, two site binding model, first equivalent): 198 µM
- Kd (CYP2C9 (hepta mutant); read-out: KD2, 20°C, two site binding model, second low affinity equivalent): 2850 µM

SMILES: C#C[C@]1(O)CC[C@H]2[C@@H]3CCc4cc(O)ccc4[C@H]3CC[C@@]21C [17EE, 17α-ethynylestradiol]
- kcat for formation of 2-OH 17EE (CYP3A4 [5]): 0.000867 ± 0.00012 s⁻¹
- Km (CYP3A4 [5]; read-out: KM for formation of 2-OH 17EE): 2.5 ± 1.1 µM

SMILES: Clc1ccc(-n2ccnc2)cc1 [1-CPI]
- ΔΔH°binding on chloro substitution (CYP2B4): -0.07 kcal/mol

SMILES: CC12CCC3c4ccc(O)cc4CCC3C1CCC2(O)c1cn[nH]n1 (stereo not drawn) [17-click, 17α-(2H-2,3,4-triazolyl)-estradiol]
- Kd (CYP3A4 [3]; 25°C, 100 mM KPi, hyperbolic binding model): 45.8 µM and 46 µM
- optical binding spectrum type (CYP3A4 [3]): type II
- Soret Red Shift (CYP3A4 [3]): 2 nm
- Kd (CYP3A4 [3]; read-out: KD200mM, 200 mM KPi): 78 µM
- IC50 (CYP3A4 [8]): 17 ± 6 µM
- compound remaining (CYP3A4 [6]; 2.5 μM substrate, 25 min incubation, 100 nM CYP3A4 in Supersomes): ~ 50%
- metabolism slowed relative to the parent molecule (CYP3A4 [6]; CYP3A4 Supersomes, relative to 17EE): 3 – 10 fold
- Km (CYP3A4 [6]; read-out: KM for total metabolism, substrate depletion, CYP3A4 Supersomes): 2.5 ± 0.4 µM
- kcat for total metabolism (CYP3A4 [6]; substrate depletion, CYP3A4 Supersomes): 0.035 ± 0.005 s⁻¹
